Source: patent US10501748B2, “Methods and compositions for integration of an exogenous sequence within the genome of plants” (Dow AgroSciences LLC, priority 2013, dated 2019)

Assays:
[1] = system: protoplasts of SEC-derived cell suspension culture of cv. Bobwhite MPB26RH; test: basal tolerance to BASTA of protoplast agarose bead-type cultures (calli growth); type: cell-based, Triticum aestivum; details: 2 weeks
Text: BASTA® selection conditions are optimized using protoplasts derived from somatic embryogenic callus (SEC)-derived cell suspension culture of the wheat line cv. Bobwhite MPB26RH. While protoplasts derived from Bobwhite MPB26RH are non-totipotent (i.e., cannot be used to regenerate entire plants), the selection conditions established for enriching the events that express the PAT gene are expected to be transferable to any protoplast-based transformation system based on a totipotent wheat genotype. The experiments are conducted, and the basal tolerance of the wild-type donor wheat line cv. Bobwhite MPB26RH to BASTA® is established. The use of BASTA® selection conditions stronger than basal tolerance are identified and used to select for transformed cells expressing the PAT gene.
Protoplasts are isolated from an established SEC-derived cell suspension culture and used to establish agarose bead-types cultures, as described previously. The basal tolerance of wheat line cv. Bobwhite MPB26RH to BASTA® is determined by incubating the agarose bead-type cultures in media supplemented with 0, 0.5, 2.5, 5, 7.5, 10, 20, 30, 40 and 50 mg/L BASTA® and assessing the rate of calli growth after 2 weeks. The BASTA® concentrations (e.g., higher than 20 mg/L) that severely impeded calli development are optimal for enriching and selecting wheat cells having the PAT gene.

[2] = system: scutella of wild-type cv. Bobwhite MPB26RH (P197/P197); test: basal tolerance to sulfometuron methyl at the callus induction stage; type: cell-based, Triticum aestivum; details: 100 nM, 4 weeks, compared to untreated samples
Method: A series of experiments were performed to determine optimal selection conditions for regenerating wheat plants expressing the AHAS (P197S) mutation conferring tolerance to sulfonylurea class herbicides. These experiments were based on testing the basal tolerance of the wild-type donor wheat line cv. Bobwhite MPB26RH (P197/P197 genotype, which confers susceptibility to sulfonylureas) at the callus induction, plant regeneration and rooting stages of an established wheat transformation system. Similar experiments were performed to determine the basal tolerance of transgenic cv. Bobwhite MPB26RH events that had randomly integrated T-DNA expressing the AHAS (P197S) mutation, which confers tolerance to sulfonylurea selection agents.
The basal tolerance of the wild-type donor wheat line to sulfometuron methyl at the callus induction stage was determined as follows: scutella of immature zygotic embryos were isolated, as previously described in Example 4, and placed in 10 cm petri dishes containing CIM medium supplemented with 0, 100, 500, 1000, 1500 and 2000 nM sulfometuron methyl, respectively. Twenty scutella were placed in each petri dish. A total of 60 scutella were tested at each sulfometuron methyl concentration. After incubation at 24° C. in the dark for 4 weeks, the amount of somatic embryogenic callus formation (SEC) at each sulfometuron methyl concentration was recorded. […]

[3] = system: somatic embryogenic callus of wild-type cv. Bobwhite MPB26RH; test: basal tolerance to sulfometuron methyl at the plant regeneration stage; type: cell-based, Triticum aestivum; details: wild-type donor wheat line; 2000 nM; 2 weeks; compared to untreated samples
Method: The basal tolerance of the wild-type donor wheat line to sulfometuron methyl at the plant regeneration stage was determined as follows: scutella of immature zygotic embryos from the donor wheat line were isolated and placed in 10 cm petri dishes containing CIM medium. Then SEC was allowed to form by incubating at 24° C. in the dark for 4 weeks. The SEC was transferred to 10 cm petri dishes containing DRM medium supplemented with 0, 100, 500, 1000, 1500, 2000, 2500 and 3000 nM sulfometuron methyl, respectively. Twenty CIM were placed in each petri dish. A total of 60 CIM were tested for basal tolerance response at each sulfometuron methyl concentration. After incubation for 2 weeks at 24° C. under a 16/8 (light/dark) hour photoperiod in a growth room, the regeneration response was recorded.

[4] = system: regenerated plants of wild-type cv. Bobwhite MPB26RH; test: basal tolerance to sulfometuron methyl at the plant rooting stage; type: in vivo, Triticum aestivum; details: wild-type donor wheat line; 3 weeks
Method: The basal tolerance of the wild-type donor wheat line to sulfometuron methyl at the plant rooting stage was determined as follows: scutella of immature zygotic embryos were isolated and placed in 10 cm petri dishes containing CIM medium. Then SEC was allowed to form by incubating at 24° C. in the dark for 4 weeks. The SEC was transferred to 10 cm petri dishes containing DRM medium and incubated for 2 weeks at 24° C. under a 16/8 (light/dark) hour photoperiod to allow plant regeneration to take place. Regenerated plants were transferred to 10 cm petri dishes containing RM medium supplemented with 0, 100, 200, 250, 300, 400, 500, 1000 and 2000 nM sulfometuron methyl, respectively. Ten regenerated plants were placed in each petri dish. A total of 30 regenerated plants were tested for basal tolerance response at each sulfometuron methyl concentration. After incubation for 3 weeks at 24° C. under a 16/8 (light/dark) hour photoperiod in a growth room, the root formation response was recorded.

[5] = system: transgenic wheat events with low-copy T-DNA expressing AHAS (P197S); test: basal tolerance to sulfometuron methyl at the rooting stage of transgenic AHAS (P197S) events; type: in vivo, Triticum aestivum; details: transgenic AHAS (P197S) events from pDAS000164; 400-600 nM; 2 weeks
Method: The basal tolerance of transgenic wheat events with randomly integrated, low-copy (≤3) T-DNA expressing the AHAS (P197S) mutation to sulfometuron methyl from pDAS000164 at the plant rooting stage was determined as follows: four independent transgenic events were randomly selected and multiplied in vitro by sub-culturing on multiplication medium. Following multiplication, plants for each event were transferred to 10 cm petri dishes containing RM medium supplemented with 0, 400, 450, 500, 550 and 600 nM sulfometuron methyl, respectively. Four plants (one from each of the four events) were placed in each petri dish. A total of 3 plants per event were tested for basal tolerance at each sulfometuron methyl concentration. After incubation for 2 weeks at 24° C. under a 16/8 (light/dark) hour photoperiod in a growth room, the root formation response was recorded.

Structure (SMILES)	concentrations that severely impeded calli development [1]	reduction of SEC formation [2]	reduction of plant regeneration [3]	concentrations at which root formation was severely inhibited [4]	root formation compared to untreated controls [5]
CP(=O)(O)CCC(N)C(=O)O (racemic) [BASTA, DL-Phosphinothricin]	higher than 20 mg/L	–	–	–	–
COC(=O)c1ccccc1S(=O)(=O)NC(=O)Nc1nc(C)cc(C)n1 [sulfometuron methyl]	–	about 70%	about 80%	higher than 400 nM	not restricted
